According to patent US20230014445A1, “ALLOSTERIC CHROMENONE INHIBITORS OF PHOSPHOINOSITIDE 3-KINASE (PI3K) FOR THE TREATMENT OF DISEASE” (Petra Pharma Corporation, priority 2021, published 2023):

Tests used:
[1] = biological target: T1, human full length PIK3KA Wild-type (p110α/p85α complex) (Homo sapiens, UniProt P42336); assay: PI3K-Alpha Kinase (PIK3CA) biochemical activity, wild-type (ADP-Glo); settings: Soy PI lipid substrate, 20 uM ATP
T1 construct: Recombinant, catalytically active human full length PIK3KA Wild-type and H1047R mutant were purchased; 6xHis (N); purchased EMD Millipore Sigma 14-602M
Method in brief: (§1)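 ADP formation, measured by ADP-Glo luminescence after reaction to about 10% ATP conversion at 27° C., gives 10-point 4-parameter IC50 curves normalized to no-enzyme and DMSO controls. Lipid substrate was PIP2diC8 or Soy PI at 50 uM, with 20 uM ATP. WT or H1047R p110α/p85α complex (1-5 nM) was preincubated 1 h with compound.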

[2] = biological target: T2, human full length PIK3KA H1047R mutant (p110α/p85α complex) (Homo sapiens, UniProt P42336, H1047R); assay: PI3K-Alpha Kinase (PIK3CA) biochemical activity, H1047R mutant (ADP-Glo); settings: Soy PI lipid substrate, 20 uM ATP
T2 construct: Recombinant, catalytically active human full length PIK3KA Wild-type and H1047R mutant were purchased; 6xHis (N); purchased EMD Millipore Sigma 14-792M
Method in brief: as §1

[3] = biological target: PI3K-α (PIK3CA) in MDA-MB-453 cells (Homo sapiens, UniProt P42336); assay: PI3K-Alpha Kinase (PIK3CA) activity in vitro cell based assay (AlphaLisa SureFire); settings: 0% FBS, 3 hours treatment, read-out: PI3K-α (PIK3CA) in vitro cell based assay IC50
Method in brief: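 Serum-free MDA-MB-453 cells with 1 μg/mL insulin treated 3 h with a 10-point compound series in 0.3% DMSO; lysates analysed by AlphaLisa SureFire. Relative IC50 from 4-parameter fit of % inhibition versus DMSO (max) and 1 μM GDC-0032 (min) controls, duplicates.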

T2 sequence (P42336 whole entry H1047R): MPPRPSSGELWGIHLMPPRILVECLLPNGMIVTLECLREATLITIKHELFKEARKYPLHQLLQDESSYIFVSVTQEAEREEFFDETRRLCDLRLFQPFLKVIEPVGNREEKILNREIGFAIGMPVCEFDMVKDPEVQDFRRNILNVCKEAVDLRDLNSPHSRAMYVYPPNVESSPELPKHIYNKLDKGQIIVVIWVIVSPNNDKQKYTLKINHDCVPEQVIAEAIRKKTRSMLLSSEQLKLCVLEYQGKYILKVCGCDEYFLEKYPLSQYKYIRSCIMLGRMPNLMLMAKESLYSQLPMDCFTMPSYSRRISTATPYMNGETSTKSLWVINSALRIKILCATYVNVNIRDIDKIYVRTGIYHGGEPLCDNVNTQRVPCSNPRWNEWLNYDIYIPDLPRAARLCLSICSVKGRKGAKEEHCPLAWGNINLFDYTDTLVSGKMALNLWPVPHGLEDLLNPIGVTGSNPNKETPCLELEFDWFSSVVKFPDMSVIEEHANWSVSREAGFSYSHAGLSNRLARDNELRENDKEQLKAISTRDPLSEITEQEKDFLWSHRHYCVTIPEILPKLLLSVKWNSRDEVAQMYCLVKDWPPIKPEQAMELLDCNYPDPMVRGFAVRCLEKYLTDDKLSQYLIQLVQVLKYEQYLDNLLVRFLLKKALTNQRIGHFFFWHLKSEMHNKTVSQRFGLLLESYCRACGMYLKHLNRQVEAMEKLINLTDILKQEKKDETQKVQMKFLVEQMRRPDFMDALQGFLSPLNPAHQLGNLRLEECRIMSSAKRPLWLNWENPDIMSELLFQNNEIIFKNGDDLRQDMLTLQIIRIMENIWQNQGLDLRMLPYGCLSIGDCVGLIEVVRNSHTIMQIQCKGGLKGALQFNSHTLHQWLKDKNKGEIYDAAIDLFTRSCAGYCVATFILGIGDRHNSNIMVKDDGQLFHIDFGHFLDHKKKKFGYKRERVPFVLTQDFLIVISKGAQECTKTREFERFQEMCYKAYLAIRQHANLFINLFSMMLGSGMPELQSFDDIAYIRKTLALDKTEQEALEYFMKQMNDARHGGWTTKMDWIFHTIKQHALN
T2 sequence (P27986 whole entry partner): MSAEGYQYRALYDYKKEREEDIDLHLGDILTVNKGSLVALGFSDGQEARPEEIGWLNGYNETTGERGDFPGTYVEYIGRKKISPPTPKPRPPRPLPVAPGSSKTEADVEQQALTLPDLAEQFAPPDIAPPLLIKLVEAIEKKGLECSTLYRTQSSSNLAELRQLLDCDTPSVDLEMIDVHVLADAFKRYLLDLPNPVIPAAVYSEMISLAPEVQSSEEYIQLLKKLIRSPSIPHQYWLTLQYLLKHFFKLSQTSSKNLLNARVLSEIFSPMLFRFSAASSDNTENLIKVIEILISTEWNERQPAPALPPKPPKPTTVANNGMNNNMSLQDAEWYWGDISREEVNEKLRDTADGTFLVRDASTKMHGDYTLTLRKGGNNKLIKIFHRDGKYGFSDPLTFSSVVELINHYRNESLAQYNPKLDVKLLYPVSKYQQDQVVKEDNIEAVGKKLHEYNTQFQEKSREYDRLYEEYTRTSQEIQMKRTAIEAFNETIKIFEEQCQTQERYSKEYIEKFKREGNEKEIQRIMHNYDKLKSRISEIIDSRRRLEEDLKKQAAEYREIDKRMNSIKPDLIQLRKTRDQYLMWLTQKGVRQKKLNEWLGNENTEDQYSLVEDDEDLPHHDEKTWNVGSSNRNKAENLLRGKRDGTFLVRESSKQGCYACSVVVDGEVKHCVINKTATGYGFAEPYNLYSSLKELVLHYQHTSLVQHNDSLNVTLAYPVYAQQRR
Chain of PI3K-α (PIK3CA) in MDA-MB-453 cells (P42336 whole entry): as the sequence (P42336 whole entry H1047R) above, with R1047H counted along it
Chain of PI3K-α (PIK3CA) in MDA-MB-453 cells (P27986 2-724, further chain): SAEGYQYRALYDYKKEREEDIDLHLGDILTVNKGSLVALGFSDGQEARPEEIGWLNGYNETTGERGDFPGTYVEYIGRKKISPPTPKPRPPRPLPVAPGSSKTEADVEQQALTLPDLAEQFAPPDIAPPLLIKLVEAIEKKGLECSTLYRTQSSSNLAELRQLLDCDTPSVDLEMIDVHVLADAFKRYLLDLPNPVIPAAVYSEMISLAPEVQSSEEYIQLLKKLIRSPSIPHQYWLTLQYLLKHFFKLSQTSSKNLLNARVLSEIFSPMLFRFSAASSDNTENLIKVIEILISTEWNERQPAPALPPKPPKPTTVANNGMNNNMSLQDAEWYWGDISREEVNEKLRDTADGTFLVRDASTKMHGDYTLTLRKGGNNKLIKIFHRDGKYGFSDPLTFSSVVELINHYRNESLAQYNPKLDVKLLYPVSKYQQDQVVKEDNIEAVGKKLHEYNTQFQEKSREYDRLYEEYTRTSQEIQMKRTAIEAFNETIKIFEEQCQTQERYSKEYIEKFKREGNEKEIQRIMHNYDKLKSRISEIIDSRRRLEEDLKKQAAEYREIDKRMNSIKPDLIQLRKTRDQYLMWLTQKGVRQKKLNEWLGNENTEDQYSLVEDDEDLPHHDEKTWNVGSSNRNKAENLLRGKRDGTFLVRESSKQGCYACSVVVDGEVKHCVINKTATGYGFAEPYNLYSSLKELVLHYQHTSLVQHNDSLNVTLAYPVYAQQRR

Structure (SMILES)	IC50 [1]	IC50 [2]	IC50 [3]
Cc1cc(C(C)Nc2ccc(C(F)(F)F)nc2C(=O)O)c2oc(-c3cccnc3)c(C)c(=O)c2c1 (single isomer, unassigned; isomer 1) [Example 117, 3-[1-[3,6-Dimethyl-4-oxo-2-(3-pyridyl)chromen-8-yl]ethylamino]-6-(trifluoromethyl)pyridine-2-carboxylic acid, Isomer 1]	1000 to 5000 nM	< 500 nM	< 50 nM
Cc1cc(C(C)Nc2ccc(C)nc2C(=O)O)c2oc(-c3cccnc3)c(C)c(=O)c2c1 (single isomer, unassigned; isomer 1) [Example 118, 3-[1-[3,6-Dimethyl-4-oxo-2-(3-pyridyl)chromen-8-yl]ethylamino]-6-methyl-pyridine-2-carboxylic acid, Isomer 1]	1000 to 5000 nM	< 500 nM	50 to 100 nM
Cc1cc(C(C)Nc2ccc(C(F)(F)F)cc2C(=O)O)c2oc(-c3cccnc3)c(C)c(=O)c2c1 (single isomer, unassigned; isomer 1) [Example 119, 2-[1-[3,6-Dimethyl-4-oxo-2-(3-pyridyl)chromen-8-yl]ethylamino]-5-(trifluoromethyl)benzoic acid, Isomer 1]	1000 to 5000 nM	< 500 nM	50 to 100 nM
Cc1cc(C(C)Nc2ccc(C)nc2C(=O)O)c2oc(-c3ccccn3)c(C)c(=O)c2c1 (single isomer, unassigned; isomer 1) [Example 122, 3-[1-[3,6-Dimethyl-4-oxo-2-(2-pyridyl)chromen-8-yl]ethylamino]-6-methyl-pyridine-2-carboxylic acid, Isomer 1]	5000 to 10000 nM	< 500 nM	50 to 100 nM
Cc1cc(C(C)Nc2ccc(C)nc2C(=O)O)c2oc(-c3cncc(F)c3)c(C)c(=O)c2c1 (single isomer, unassigned; isomer 1) [Example 123, 3-[1-[2-(5-Fluoro-3-pyridyl)-3,6-dimethyl-4-oxo-chromen-8-yl]ethylamino]-6-methyl-pyridine-2-carboxylic acid, Isomer 1]	1000 to 5000 nM	< 500 nM	< 50 nM

Further lines, results first:

IC50 [1]	IC50 [2]	IC50 [3]	Structure (SMILES)
5000 to 10000 nM	< 500 nM	50 to 100 nM	Cc1cc(C(C)Nc2cccnc2C(=O)O)c2oc(-c3cccnc3)c(C)c(=O)c2c1 (single isomer, unassigned; isomer 1) [Example 116, 3-[1-[3,6-Dimethyl-4-oxo-2-(3-pyridyl)chromen-8-yl]ethylamino]pyridine-2-carboxylic acid, Isomer 1]
1000 to 5000 nM	< 500 nM	< 50 nM	Cc1cc(C(C)Nc2ccc(F)cc2C(=O)O)c2oc(-c3cccnc3)c(C)c(=O)c2c1 (single isomer, unassigned; isomer 1) [Example 120, 2-[1-[3,6-Dimethyl-4-oxo-2-(3-pyridyl)chromen-8-yl]ethylamino]-5-fluoro-benzoic acid, Isomer 1]
500 to 1000 nM	< 500 nM	50 to 100 nM	Cc1cc(C(C)Nc2ccc(F)c(F)c2C(=O)O)c2oc(-c3ccccn3)c(C)c(=O)c2c1 (single isomer, unassigned; isomer 1) [Example 128, 6-[1-[3,6-Dimethyl-4-oxo-2-(2-pyridyl)chromen-8-yl]ethylamino]-2,3-difluoro-benzoic acid, Isomer 1]
< 500 nM	< 500 nM	< 50 nM	Cc1cc(C(C)Nc2ccc(Br)nc2C(=O)O)c2oc(-c3cccnc3)c(C)c(=O)c2c1 (single isomer, unassigned; isomer 1) [Example 129, 6-Bromo-3-[1-[3,6-dimethyl-4-oxo-2-(3-pyridyl)chromen-8-yl]ethylamino]pyridine-2-carboxylic acid, Isomer 1]
500 to 1000 nM	< 500 nM	< 50 nM	Cc1cc(C(C)Nc2ccccc2C(=O)O)c2oc(-c3cnc(N(C)C)s3)c(C)c(=O)c2c1 (single isomer, unassigned; isomer 1) [Example 130, 2-[1-[2-[2-(Dimethylamino)thiazol-5-yl]-3,6-dimethyl-4-oxo-chromen-8-yl]ethylamino]benzoic acid, Isomer 1]
